A word on the IC50: it is the concentration that gives 50% inhibition.

A value given as a limit tells only on which side of the number the result lay.

The record followed here is patent publication US11660303B2, “2-phenylimidazo[4,5-b]pyridin-7-amine derivates useful as inhibitors of mammalian tyrosine kinase ROR1 activity” (KANCERA AB, priority 2016, dated 2023).

One assay deals with PBMC from CLL patients. The assay can be described thus: CellTiter-Blue Cell Viability Assay, PBMC from CLL patients. The note with it: Homo sapiens, cell toxicity, culture 24, 48 and 72 h (time of the values not stated). The assay is classed as cell-based. As to the method:
(§1) The CellTiter-Blue® Cell Viability Assay provides a homogeneous, fluorometric method for estimating the number of viable cells present in multi-well plates. The assay uses the indicator dye resazurin to measure the metabolic capacity of cells. Viable cells retain the ability to reduce resazurin into resorufin, which is highly fluorescent.
(§2) Stock solutions (10 or 100 mM in DMSO) of compounds were serially diluted 1:2 in 11 concentrations and 25 nL/well (100 mM stock) or 50 nL/well (10 mM stock) were acoustically dispensed in assay plates with an EDC acoustic dispenser. Final starting concentration in the assay was 20 μM (0.2% DMSO) or 100 μM (0.1% DMSO) for test compounds.
(§3) Peripheral blood mononuclear cells (PBMC) from CLL patients or healthy volunteers were seeded in assay plates (384-well black/clear, Greiner #781091) pre-dispensed with compounds, 25 μL/well, and cultured for 24, 48 and 72 h. The cell concentration was 50 000 cells/well for PBMC from CLL patients or healthy volunteers. After 24, 48 and 72 h culture, Celltiter Blue reagent was added (5 μL/well) and the plates were incubated for 2 h. The plates were read in an Envision fluorescence reader (PerkinElmer) with Ex544 nm/Em590 nm. Results were calculated as % cytotoxicity compared to background (cells treated with 0.2% DMSO).
(§4) Thus, IC50 values for cell toxicity in PBMC from CLL patients as well as healthy volunteers for some compounds of the invention are shown in Table 3 as measured by the CellTiter-Blue® Cell Viability Assay.
Background: Resazurin is reduced to fluorescent resorufin, in cell work by metabolically active cells.

Assay [1] has as its system PBMC from healthy volunteers. Description: CellTiter-Blue Cell Viability Assay, PBMC from healthy volunteers. It counts as cell-based. The note with it: Homo sapiens, cell toxicity, culture 24, 48 and 72 h (time of the values not stated). The procedure:
as §1, §2, §3, §4

`CN1CCC(Nc2c(Cl)cnc3[nH]c(-c4ccc(N5CCN(C)CC5)cc4)nc23)CC1` [Example 2, 6-Chloro-2-[4-(4-methylpiperazin-1-yl)phenyl]-N-(1-methylpiperidin-4-yl)-3H-imidazo[4,5-b]pyridin-7-amine]: the half-inhibitory concentration (IC50) is 160 nM in the assay with PBMC from CLL patients and above 20000 nM in assay [1].
In the same order, the values of `CCN1CCN(c2ccc(-c3nc4c(NC5CCN(C)CC5)c(Br)cnc4[nH]3)cc2)CC1` [Example 10, 6-Bromo-2-[4-(4-ethylpiperazin-1-yl)phenyl]-N-(1-methylpiperidin-4-yl)-3H-imidazo[4,5-b]pyridin-7-amine] are 110 nM and above 20000 nM.
Turning to `COCCN1CCN(c2ccc(-c3nc4c(NC5CCN(Cc6ccc(OC)cc6)CC5)c(Cl)cnc4[nH]3)cc2)CC1` [Example 14, 6-Chloro-N-[1-(4-methoxybenzyl)piperidin-4-yl]-2-{4-[4-(2-methoxyethyl)piperazin-1-yl]phenyl}-3H-imidazo[4,5-b]pyridin-7-amine], the results for the half-maximal inhibitory concentration (IC50) (in the assay on PBMC from CLL patients; in assay [1]) were 420 nM and 15600 nM, respectively.
As for `CN1CCC(Nc2c(Br)cnc3[nH]c(-c4ccc(N5CCN(c6ccncc6)CC5)cc4)nc23)CC1` [Example 16, 6-Bromo-N-(1-methylpiperidin-4-yl)-2-[4-(4-pyridin-4-ylpiperazin-1-yl)phenyl]-3H-imidazo[4,5-b]pyridin-7-amine], the concentration for half-maximal inhibition (IC50) in the assay with PBMC from CLL patients was found to be 80 nM; in assay [1], 17200 nM.
For `CN1CCC(Nc2c(Cl)cnc3[nH]c(-c4ccc(N5CCCN(C)CC5)cc4)nc23)CC1` [Example 22, 6-Chloro-2-[4-(4-methyl-1,4-diazepan-1-yl)phenyl]-N-(1-methylpiperidin-4-yl)-3H-imidazo[4,5-b]pyridin-7-amine] the same measures were 170 nM and 18600 nM.
For `CN1CCC(Nc2c(Cl)cnc3[nH]c(-c4ccc(N5CCOCC5)cc4)nc23)CC1` [Example 27, 6-Chloro-N-(1-methylpiperidin-4-yl)-2-(4-morpholin-4-ylphenyl)-3H-imidazo[4,5-b]pyridin-7-amine] the same measures were 90 nM and 17700 nM.
As to `COc1ccc(CN2CCC(Nc3c(Cl)cnc4[nH]c(-c5ccc(N6CCN(C(C)=O)CC6)cc5)nc34)CC2)cc1` [Example 35, 2-[4-(4-Acetylpiperazin-1-yl)phenyl]-6-chloro-N-[1-(4-methoxybenzyl)piperidin-4-yl]-3H-imidazo[4,5-b]pyridin-7-amine], the concentration for half-maximal inhibition (IC50) was 430 nM in the assay with PBMC from CLL patients and above 20000 nM in assay [1].
For the compound `CN1CCC(Nc2c(Cl)cnc3[nH]c(-c4ccc(N5CCNC(=O)C5)cc4)nc23)CC1` [Example 37, 4-(4-{6-Chloro-7-[(1-methylpiperidin-4-yl)amino]-3H-imidazo[4,5-b]pyridin-2-yl}phenyl)piperazin-2-one], the figures for the IC50 (with PBMC from CLL patients; in assay [1]) were 290 nM and above 20000 nM, respectively.
In the same order, the values of `COc1ccc(CN2CCC(Nc3c(Cl)cnc4[nH]c(-c5ccc(N6CCN(S(C)(=O)=O)CC6)cc5)nc34)CC2)cc1` [Example 44, 6-Chloro-N-[1-(4-methoxybenzyl)piperidin-4-yl]-2-{4-[4-(methylsulfonyl)piperazin-1-yl]phenyl}-3H-imidazo[4,5-b]pyridin-7-amine] are 440 nM and above 20000 nM.
In the same order, the values of `CCN1CCC(Nc2c(Br)cnc3[nH]c(-c4ccc(N5CCNC(=O)CC5)cc4)nc23)CC1` [Example 53, 1-(4-{6-Bromo-7-[(1-ethylpiperidin-4-yl)amino]-3H-imidazo[4,5-b]pyridin-2-yl}phenyl)-1,4-diazepan-5-one] are 480 nM and above 20000 nM.
In the same order, the values of `COCCN1CCCN(c2ccc(-c3nc4c(NC5CCN(C(C)C)CC5)c(Cl)cnc4[nH]3)cc2)CC1` [Example 63, 6-Chloro-2-{4-[4-(2-methoxyethyl)-1,4-diazepan-1-yl]phenyl}-N-[1-(1-methylethyl)piperidin-4-yl]-3H-imidazo[4,5-b]pyridin-7-amine] are 960 nM and above 20000 nM.
Take `CCOCCN1CCN(c2ccc(-c3nc4c(NC5CCN(CC)CC5)c(Cl)cnc4[nH]3)cc2)CC1` [Example 70, 6-Chloro-2-{4-[4-(2-ethoxyethyl)piperazin-1-yl]phenyl}-N-(1-ethylpiperidin-4-yl)-3H-imidazo[4,5-b]pyridin-7-amine]: the IC50 in the assay on PBMC from CLL patients was 160 nM; in assay [1], above 20000 nM.
For `Clc1cnc2[nH]c(-c3ccc(N4CCOCC4)cc3)nc2c1NC1CCN(Cc2cccs2)CC1` [Example 83, 6-Chloro-2-(4-morpholin-4-ylphenyl)-N-[1-(thiophen-2-ylmethyl)piperidin-4-yl]-3H-imidazo[4,5-b]pyridin-7-amine] the same measures were 1000 nM and above 20000 nM.
In the same order, the values of `CC(C)OCCN1CCN(c2ccc(-c3nc4c(NC5CCN(Cc6ccc(N(C)C)cc6)CC5)c(Cl)cnc4[nH]3)cc2)CC1` [Example 90, 6-Chloro-N-{1-[4-(dimethylamino)benzyl]piperidin-4-yl}-2-(4-{4-[2-(1-methylethoxy)ethyl]piperazin-1-yl}phenyl)-3H-imidazo[4,5-b]pyridin-7-amine] are 870 nM and above 20000 nM.
Turning to `CN1CCC(Nc2c(Cl)cnc3[nH]c(-c4ccc(N5CCN(Cc6ccccn6)CC5)cc4)nc23)CC1` [Example 98, 6-Chloro-N-(1-methylpiperidin-4-yl)-2-{4-[4-(pyridin-2-ylmethyl)piperazin-1-yl]phenyl}-3H-imidazo[4,5-b]pyridin-7-amine], the half-maximal inhibitory concentration (IC50) is 60 nM in the assay on PBMC from CLL patients and above 20000 nM in assay [1].
On to `COCCN1CCN(c2ccc(-c3nc4c(NC5CCN(Cc6ccc(O)c(OC)c6)CC5)c(Cl)cnc4[nH]3)cc2)CC1` [Example 103, 4-({4-[(6-Chloro-2-{4-[4-(2-methoxyethyl)piperazin-1-yl]phenyl}-3H-imidazo[4,5-b]pyridin-7-yl)amino]piperidin-1-yl}methyl)-2-methoxyphenol], for which the results for the IC50 (in the assay on PBMC from CLL patients; in assay [1]) were 350 nM and above 20000 nM, respectively.
On to `CN1CCC(Nc2c(Br)cnc3[nH]c(-c4ccc(N5CCN(Cc6ccccn6)CC5)cc4)nc23)CC1` [Example 115, 6-Bromo-N-(1-methylpiperidin-4-yl)-2-{4-[4-(pyridin-2-ylmethyl)piperazin-1-yl]phenyl}-3H-imidazo[4,5-b]pyridin-7-amine], for which the IC50 in the assay on PBMC from CLL patients was 40 nM; in assay [1] it was 16200 nM.
`Cc1noc(C)c1CN1CCN(c2ccc(-c3nc4c(NC5CCN(C)CC5)c(Cl)cnc4[nH]3)cc2)CC1` [Example 119, 6-Chloro-2-(4-{4-[(3,5-dimethylisoxazol-4-yl)methyl]piperazin-1-yl}phenyl)-N-(1-methylpiperidin-4-yl)-3H-imidazo[4,5-b]pyridin-7-amine]: the 50% inhibitory concentration (IC50) with PBMC from CLL patients is 40 nM; in assay [1], 17000 nM.
For `CN1CC[C@H](Nc2c(Cl)cnc3[nH]c(-c4ccc(N5CCN(Cc6ccncc6)CC5)cc4)nc23)C1` [Example 126, 6-Chloro-N-[(3S)-1-methylpyrrolidin-3-yl]-2-{4-[4-(pyridin-4-ylmethyl)piperazin-1-yl]phenyl}-3H-imidazo[4,5-b]pyridin-7-amine] the same measures were 130 nM and above 20000 nM.
Regarding `CCN1CCC(Nc2c(Cl)cnc3[nH]c(-c4ccc(N5CCN(Cc6cccc(C)n6)CC5)cc4)nc23)CC1` [Example 142, 6-Chloro-N-(1-ethylpiperidin-4-yl)-2-(4-{4-[(6-methylpyridin-2-yl)methyl]piperazin-1-yl}phenyl)-3H-imidazo[4,5-b]pyridin-7-amine], the 50% inhibitory concentration (IC50) in the assay with PBMC from CLL patients is 240 nM; in assay [1], 14800 nM.
For `CC(C)N1CCC(Nc2c(Br)cnc3[nH]c(-c4ccc(N5CCN(Cc6ccncc6)CC5)cc4)nc23)CC1` [Example 151, 6-Bromo-N-[1-(1-methylethyl)piperidin-4-yl]-2-{4-[4-(pyridin-4-ylmethyl)piperazin-1-yl]phenyl}-3H-imidazo[4,5-b]pyridin-7-amine] the same measures were 390 nM and 13700 nM.
For the compound `CN1CC[C@H](Nc2c(Br)cnc3[nH]c(-c4ccc(N5CCN(Cc6cncnc6)CC5)cc4)nc23)C1` [Example 157, 6-Bromo-N-[(3S)-1-methylpyrrolidin-3-yl]-2-{4-[4-(pyrimidin-5-ylmethyl)piperazin-1-yl]phenyl}-3H-imidazo[4,5-b]pyridin-7-amine], the IC50 is 290 nM in the assay with PBMC from CLL patients and above 20000 nM in assay [1].
In the same order, the values of `CC(C)N1CCC(Nc2c(Cl)cnc3[nH]c(-c4ccc(N5CCN(Cc6cccnc6)CC5)cc4)nc23)CC1` [Example 168, 6-Chloro-N-[1-(1-methylethyl)piperidin-4-yl]-2-{4-[4-(pyridin-3-ylmethyl)piperazin-1-yl]phenyl}-3H-imidazo[4,5-b]pyridin-7-amine] are 230 nM and 17200 nM.
For `CCN1CCC(Nc2c(Br)cnc3[nH]c(-c4ccc(N5CCN(Cc6cccnc6)CC5)cc4)nc23)CC1` [Example 174, 6-Bromo-N-(1-ethylpiperidin-4-yl)-2-{4-[4-(pyridin-3-ylmethyl)piperazin-1-yl]phenyl}-3H-imidazo[4,5-b]pyridin-7-amine] the same measures were 10 nM and above 20000 nM.
